Measurements: US11752156B2, “Compositions and methods for treating hyperproliferative skin disorders” (Athenex HK Innovative Limited, priority 2018, dated 2023)
Several values for one entry are separate records, joined by “and”; a condition that tells them apart may be missing. Equal values may be shown once. Read-outs that look alike come from different tables or passages of the source.

Columns and labels:
[1] = system: squamous cell human carcinoma cell line (SCC A431); assay: MTT cell proliferation assay, 72 hours, dark or blue light, squamous cell carcinoma; format: cell-based; conditions: for inhibition at 0.005 µM / inhibition at 0.02 µM / inhibition at 0.08 µM / inhibition at 0.32 µM / inhibition at 1.28 µM: Homo sapiens, read-out: growth inhibition relative to untreated control
Protocol: The effects of combined treatment with KX01, a vitamin D derivative, and/or blue/UV light exposure were characterized using a cell proliferation assay. Cell proliferation was assessed by using an MTT assay. Cells were seeded in 96-well plate (3,000-5,000 cells per well) and treated with test compounds at varying concentrations (e.g. KX01: 5 to 80 nM; calcipotriol 5 to 1,280 nM) for 72 hours, either in the dark or exposed to blue light irradiation (for 2, 4, or 6 hours). To each well, 10 μl of 3-(4,5-dimethylthiazol-2-yl)-2,5-diphenyltetrazolium bromide (MTT) (RPI Corporation™) solution (5 mg/ml in PBS) was added and incubated at 37° C. for 3 hours. Next, 100 μl of 20% SDS was added to each well. After overnight incubation at 37° C., the absorbance in each well was measured at 570 nm in a microplate reader (Molecular Devices™). The cell growth curve and GI50s were calculate using GraphPad Prism™ 5 software. Similar studies were performed using a squamous cell carcinoma cell line (SCC A431). Tables 19 and 20 show the results of cell growth inhibition studies (expressed as a percentage relative to control cell growth) for treatment with either KX01 or calcipotriol in combination with exposure to blue light. […] The percentage of growth inhibition relative to untreated control is shown. Tables 21 to 24 show the effects of combined treatment with KX01, calcipotriol, and exposure to blue light at 0 hours, 2 hours, 4 hours, and 6 hours of light exposure (respectively) on human squamous cell carcinoma cells. Values are expressed as the percentage of growth inhibition relative to cells grown under control conditions (0 hours blue light, [KX01]=0, [calcipotriol]=0). The percentage of growth inhibition relative to an untreated control is shown. […] Results are shown below in Tables 31 and 32, which show results for KX01 and calcipotriol (respectively). Values are expressed as the percentage of growth inhibition relative to cells grown under control conditions (0 hours blue light, [KX01]=0, [calcipotriol]=0). […] Results are shown below in Tables 33 to Table 36, which show results from 0, 2, 4, and 6 hours of blue light exposure (respectively). Values are expressed as the percentage of growth inhibition relative to cells grown under control conditions (0 hours blue light, [KX01]=0, [calcipotriol]=0).

[2] = system: CCD 1106 KERTr human keratinocyte cell line; assay: MTT cell proliferation assay, 72 hours, dark or blue light, keratinocytes; format: cell-based; conditions: for inhibition at 0.005 µM / inhibition at 0.02 µM / inhibition at 0.08 µM / inhibition at 0.32 µM / inhibition at 1.28 µM: Homo sapiens, read-out: growth inhibition relative to untreated control
Protocol: The effects of combined treatment with KX01, a vitamin D derivative, and/or blue/UV light exposure were characterized using a cell proliferation assay. Cell proliferation was assessed by using an MTT assay. Cells were seeded in 96-well plate (3,000-5,000 cells per well) and treated with test compounds at varying concentrations (e.g. KX01: 5 to 80 nM; calcipotriol 5 to 1,280 nM) for 72 hours, either in the dark or exposed to blue light irradiation (for 2, 4, or 6 hours). To each well, 10 μl of 3-(4,5-dimethylthiazol-2-yl)-2,5-diphenyltetrazolium bromide (MTT) (RPI Corporation™) solution (5 mg/ml in PBS) was added and incubated at 37° C. for 3 hours. Next, 100 μl of 20% SDS was added to each well. After overnight incubation at 37° C., the absorbance in each well was measured at 570 nm in a microplate reader (Molecular Devices™). The cell growth curve and GI50s were calculate using GraphPad Prism™ 5 software. Tables 13 and 14 show the results of cell growth inhibition studies (expressed as a percentage relative to control cell growth) for treatment with either KX01 or calcipotriol in combination with exposure to blue light. […] The percentage of growth inhibition relative to untreated control is shown. […] The percentage of growth inhibition relative to untreated control is shown. Tables 15 to 18 show the effects of combined treatment with KX01, calcipotriol, and exposure to blue light at 0 hours, 2 hours, 4 hours, and 6 hours of light exposure (respectively). Values are expressed as the percentage of growth inhibition relative to cells grown under control conditions (0 hours blue light, [KX01]=0, [calcipotriol]=0). […] Results are shown below in Tables 27 to Table 30, which show results from 0, 2, 4, and 6 hours of blue light exposure (respectively). Values are expressed as the percentage of growth inhibition relative to cells grown under control conditions (0 hours blue light, [KX01]=0, [calcipotriol]=0).

[3] = calcipotriol 5 nM, blue light 0 h
[4] = calcipotriol 5 nM, blue light 2 h
[5] = calcipotriol 5 nM, blue light 4 h
[6] = calcipotriol 5 nM, blue light 6 h
[7] = calcipotriol 20 nM, blue light 4 h
[8] = calcipotriol 80 nM, blue light 0 h
[9] = calcipotriol 80 nM, blue light 4 h
[10] = calcipotriol 80 nM, blue light 6 h
[11] = calcipotriol 320 nM, blue light 2 h
[12] = calcipotriol 320 nM, blue light 4 h
[13] = calcipotriol 1,280 nM, blue light 0 h
[14] = calcipotriol 1,280 nM, blue light 4 h
[15] = calcipotriol 1,280 nM, blue light 6 h

C=C1/C(=C\C=C2/CCC[C@]3(C)[C@@H]([C@H](C)/C=C/[C@@H](O)C4CC4)CC[C@@H]23)C[C@@H](O)C[C@@H]1O [Calcipotriol, calcipotriol]
inhibition at 0.005 µM ([1]; A-431, 0 h, calcipotriol 5 nM, blue light 0 h): 19% | inhibition at 0.02 µM ([1]; A-431, 0 h, calcipotriol 20 nM, blue light 0 h): 30% | inhibition at 0.08 µM ([1]; A-431, 0 h, calcipotriol 80 nM, blue light 0 h): 40% | inhibition at 0.32 µM ([1]; A-431, 0 h, calcipotriol 320 nM, blue light 0 h): 41% | inhibition at 1.28 µM ([1]; A-431, 0 h, calcipotriol 1,280 nM, blue light 0 h): 36% | inhibition at 0.005 µM ([1]; A-431, 2 h, calcipotriol 5 nM, blue light 2 h): 26% | inhibition at 0.02 µM ([1]; A-431, 2 h, calcipotriol 20 nM, blue light 2 h): 36% | inhibition at 0.08 µM ([1]; A-431, 2 h, calcipotriol 80 nM, blue light 2 h): 41% | inhibition at 0.32 µM ([1]; A-431, 2 h, calcipotriol 320 nM, blue light 2 h): 35% | inhibition at 1.28 µM ([1]; A-431, 2 h, calcipotriol 1,280 nM, blue light 2 h): 38% | inhibition at 0.005 µM ([1]; A-431, 4 h, calcipotriol 5 nM, blue light 4 h): 49% | inhibition at 0.02 µM ([1]; A-431, 4 h, calcipotriol 20 nM, blue light 4 h): 44% | inhibition at 0.08 µM ([1]; A-431, 4 h, calcipotriol 80 nM, blue light 4 h): 47% | inhibition at 0.32 µM ([1]; A-431, 4 h, calcipotriol 320 nM, blue light 4 h): 49% | inhibition at 1.28 µM ([1]; A-431, 4 h, calcipotriol 1,280 nM, blue light 4 h): 43% | inhibition at 0.005 µM ([1]; A-431, 6 h, calcipotriol 5 nM, blue light 6 h): 67% | inhibition at 0.02 µM ([1]; A-431, 6 h, calcipotriol 20 nM, blue light 6 h): 69% | inhibition at 0.08 µM ([1]; A-431, 6 h, calcipotriol 80 nM, blue light 6 h): 67% | inhibition at 0.32 µM ([1]; A-431, 6 h, calcipotriol 320 nM, blue light 6 h): 67% | inhibition at 1.28 µM ([1]; A-431, 6 h, calcipotriol 1,280 nM, blue light 6 h): 68% | growth inhibition relative to untreated control [1, 3]: 14% | growth inhibition relative to untreated control [1, 4]: 27% | growth inhibition relative to untreated control [1, 5]: 50% | growth inhibition relative to untreated control [1, 6]: 62% | growth inhibition relative to untreated control ([1]; calcipotriol 20 nM, blue light 2 h): 39% | growth inhibition relative to untreated control [1, 7]: 48% | growth inhibition relative to untreated control ([1]; calcipotriol 20 nM, blue light 6 h): 63% | growth inhibition relative to untreated control [1, 8]: 27% | growth inhibition relative to untreated control [1, 9]: 50% | growth inhibition relative to untreated control [1, 10]: 61% | growth inhibition relative to untreated control ([1]; calcipotriol 320 nM, blue light 0 h): 31% | growth inhibition relative to untreated control [1, 11]: 37% | growth inhibition relative to untreated control [1, 12]: 51% | growth inhibition relative to untreated control ([1]; calcipotriol 320 nM, blue light 6 h): 60% | growth inhibition relative to untreated control [1, 13]: 28% | growth inhibition relative to untreated control ([1]; calcipotriol 1,280 nM, blue light 2 h): 39% | growth inhibition relative to untreated control [1, 14]: 48% | growth inhibition relative to untreated control [1, 15]: 58% and 57% | inhibition at 0.005 µM ([2]; CCD-1106, 0 h, calcipotriol 5 nM, blue light 0 h): 9% | inhibition at 0.02 µM ([2]; CCD-1106, 0 h, calcipotriol 20 nM, blue light 0 h): 24% | inhibition at 0.08 µM ([2]; CCD-1106, 0 h, calcipotriol 80 nM, blue light 0 h): 45% | inhibition at 0.32 µM ([2]; CCD-1106, 0 h, calcipotriol 320 nM, blue light 0 h): 48% | inhibition at 1.28 µM ([2]; CCD-1106, 0 h, calcipotriol 1,280 nM, blue light 0 h): 43% | inhibition at 0.005 µM ([2]; CCD-1106, 2 h, calcipotriol 5 nM, blue light 2 h): 32% | inhibition at 0.02 µM ([2]; CCD-1106, 2 h, calcipotriol 20 nM, blue light 2 h): 39% | inhibition at 0.08 µM ([2]; CCD-1106, 2 h, calcipotriol 80 nM, blue light 2 h): 55% | inhibition at 0.32 µM ([2]; CCD-1106, 2 h, calcipotriol 320 nM, blue light 2 h): 66% | inhibition at 1.28 µM ([2]; CCD-1106, 2 h, calcipotriol 1,280 nM, blue light 2 h): 62% | inhibition at 0.005 µM ([2]; CCD-1106, 4 h, calcipotriol 5 nM, blue light 4 h): 53% | inhibition at 0.02 µM ([2]; CCD-1106, 4 h, calcipotriol 20 nM, blue light 4 h): 58% | inhibition at 0.08 µM ([2]; CCD-1106, 4 h, calcipotriol 80 nM, blue light 4 h): 70% | inhibition at 0.32 µM ([2]; CCD-1106, 4 h, calcipotriol 320 nM, blue light 4 h): 71% | inhibition at 1.28 µM ([2]; CCD-1106, 4 h, calcipotriol 1,280 nM, blue light 4 h): 69% | inhibition at 0.005 µM ([2]; CCD-1106, 6 h, calcipotriol 5 nM, blue light 6 h): 56% | inhibition at 0.02 µM ([2]; CCD-1106, 6 h, calcipotriol 20 nM, blue light 6 h): 59% | inhibition at 0.08 µM ([2]; CCD-1106, 6 h, calcipotriol 80 nM, blue light 6 h): 71% | inhibition at 0.32 µM ([2]; CCD-1106, 6 h, calcipotriol 320 nM, blue light 6 h): 72% | inhibition at 1.28 µM ([2]; CCD-1106, 6 h, calcipotriol 1,280 nM, blue light 6 h): 66% | growth inhibition relative to untreated control [2, 3]: 6% | growth inhibition relative to untreated control [2, 4]: 33% | growth inhibition relative to untreated control [2, 5]: 47% | growth inhibition relative to untreated control [2, 6]: 51% | growth inhibition relative to untreated control ([2]; calcipotriol 20 nM, blue light 0 h): 17% | growth inhibition relative to untreated control [2, 7]: 52% | growth inhibition relative to untreated control [2, 8]: 35% | growth inhibition relative to untreated control [2, 9]: 64% | growth inhibition relative to untreated control [2, 10]: 67% | growth inhibition relative to untreated control [2, 11]: 60% | growth inhibition relative to untreated control [2, 12]: 67% | growth inhibition relative to untreated control [2, 13]: 37% | growth inhibition relative to untreated control [2, 14]: 63% | growth inhibition relative to untreated control [2, 15]: 67% | effect of blue light exposure with the drug on cell growth inhibition ([2]; for example 6 hours of blue light with 10 nm KX01): Synergistic effects
